Mutagenic call and call data for 19 molecules are collected here from PubChem BioAssay AID1259408 (Genetic Toxicology Data Bank (GENE-TOX), 2018).

The data set has as its system GENE-TOX genotoxicity assays, various organisms and cells. The data set can be described thus: GENE-TOX mutagenicity studies. Conditions: for call: Assay Type: In vivo carcinogenicity studies.
Where [1] appears, read: Species/Cell Type: Syrian hamster embryo (SHE) cells, Assay Type: Cell transformation, clonal assay, Assay Code: CTC+, Evaluation Type: Evaluation A (Pre-1980).
[2] abbreviates: Species/Cell Type: Salmonella typhimurium (one or more of the five standard strains: TA98, TA100, TA1535, TA1537, and TA1538), Assay Type: Histidine reverse gene mutation, Ames assay, Assay Code: SAL+, Evaluation Type: Evaluation A (Pre-1980).
The mark [3] stands for this setting: Species/Cell Type: Nonhuman, Assay Type: Sister-chromatid exchange (SCE) in vitro, Assay Code: SC2+, Evaluation Type: Evaluation B (Post-1980).
[4] abbreviates: Species/Cell Type: Chinese hamster lung (V79) cells, Assay Type: Forward gene mutation at the HPRT or ouabain locus, Assay Code: V79-*, Activation: With metabolic activation, Evaluation Type: Evaluation A (Pre-1980).
Where [5] appears, read: Species/Cell Type: Nonhuman, Assay Code: CCGT, Evaluation Type: Evaluation A (Pre-1980).

Active and inactive are the calls of the source. How the calls were made is not given here.

Regarding `c1ccc2c(c1)-c1ccccc1C1OC21` (configuration not stated), the mutagenic call is “inactive; negative” (Species/Cell Type: Mouse prostate cells, Assay Type: Cell transformation, Assay Code: CTM-, Evaluation Type: Evaluation A (Pre-1980)) and “active; positive” under setting [1].

Regarding `O=CCC=O`, where the note is “Species/Cell Type: Salmonella typhimurium (one or more of the five standard strains: TA98, TA100, TA1535, TA1537, and TA1538), Assay Type: Histidine reverse gene mutation, Ames assay, Assay Code: SALT, Evaluation Type: Evaluation A (Pre-1980)”, the mutagenic call was “no conclusion”.

In the case of `CCCCOc1ccc(CC(=O)NOC=O)cc1`, the mutagenic call (Species/Cell Type: Nonhuman, Assay Type: Sister-chromatid exchange (SCE) in vitro, Assay Code: SC2+D, Dose Response: With dose response, Evaluation Type: Evaluation B (Post-1980)) is “active; positive”.

For `Clc1ccc(Cl)cc1`, the mutagenic call by setting is: (Species/Cell Type: Allium cepa, Assay Type: Chromosome aberrations, Assay Code: ALC+, Evaluation Type: Evaluation A (Pre-1980)) “active; positive”; (Species/Cell Type: Mammalian polychromatic erythrocytes, Assay Type: Micronucleus test, chromosome aberrations, Assay Code: MNT+, Evaluation Type: Evaluation B (Post-1980)) “active; positive”.

Consider `CCN(CC)CCOc1ccc(C(=C(Cl)c2ccccc2)c2ccccc2)cc1`, for which the mutagenic call (Species/Cell Type: Human, Sex: Male, Assay Type: Sperm morphology, Assay Code: SPHT, Evaluation Type: Evaluation A (Pre-1980)) is reported as “no conclusion” and the mutagenic call (Species/Cell Type: Mammalian polychromatic erythrocytes, Assay Type: Micronucleus test, chromosome aberrations, Assay Code: MNTT, Evaluation Type: Evaluation B (Post-1980)) is given as “no conclusion”.

Regarding `Nc1nc(-c2cccc3ccccc23)cs1`, the mutagenic call (Species/Cell Type: Salmonella typhimurium, Assay Type: Forward and reverse gene mutation, host-mediated assay, Assay Code: HMAT, Evaluation Type: Evaluation A (Pre-1980)) is “no conclusion”.

Take `CC(=O)c1c(=O)cc(C)oc1=O`: the mutagenic call was “inactive; negative” (Species/Cell Type: Nonhuman, Assay Type: Sister-chromatid exchange (SCE) in vitro, Assay Code: SC2-, Evaluation Type: Evaluation A (Pre-1980)) and “no conclusion” (Species/Cell Type: Nonhuman, Assay Type: Sister-chromatid exchange (SCE) in vitro, Assay Code: SC2T, Evaluation Type: Evaluation B (Post-1980)).

Consider `Cc1cc(=Nc2ccc3c(c2)c(-c2ccc(N)cc2)[n+](C)c2cc(N)ccc32)nc(N)n1C`, for which the mutagenic call under setting [2] is “active; positive”.

For `CCCCCOC(=O)COc1cc(Cl)c(Cl)cc1Cl`, where the note is “Species/Cell Type: Saccharomyces cerevisiae, Assay Type: Mitotic recombination or gene conversion, Assay Code: YEC-, Evaluation Type: Evaluation A (Pre-1980)”, the mutagenic call is “inactive; negative”.

`CC(C)[N+](=O)[O-]`: the mutagenic call (Species/Cell Type: Mammalian polychromatic erythrocytes, Assay Type: Micronucleus test, chromosome aberrations, Assay Code: MNTT, Evaluation Type: Evaluation A (Pre-1980)) is reported as “no conclusion”. In addition, the call (Species/Cell Type: Nonhuman, Assay Code: CCG+, Evaluation Type: Evaluation A (Pre-1980)) was “active; positive”.

For the molecule `[Cl][Ni][Cl]`, the mutagenic call is, setting by setting: (Species/Cell Type: Bacillus subtilis (H17 vs M45), Assay Type: Rec-assay, spot test, DNA effects (bacterial DNA repair), Assay Code: REW-, Evaluation Type: Evaluation A (Pre-1980)) “inactive; negative”; (Species/Cell Type: Escherichia coli WP2, Assay Type: Tryptophan reverse gene mutation, Assay Code: WP2-, Evaluation Type: Evaluation A (Pre-1980)) “inactive; negative”; (Species/Cell Type: Human lymphocytes, Assay Type: Sister-chromatid exchange (SCE) in vitro, Assay Code: SCL+, Evaluation Type: Evaluation B (Post-1980)) “active; positive”; (Species/Cell Type: Human, Assay Type: Sister-chromatid exchange (SCE) in vitro, Assay Code: SC1+, Evaluation Type: Evaluation B (Post-1980)) “active; positive”; under setting [3], “active; positive”; (Species/Cell Type: Salmonella typhimurium, Serratia marcesens, Assay Type: Forward and reverse gene mutation, host-mediated assay, Assay Code: HM2T, Evaluation Type: Evaluation A (Pre-1980)) “no conclusion”.

Regarding `CCCCN(C)N=O`, the mutagenic call by setting is: (Species/Cell Type: Arabidopsis species, Assay Type: Gene mutation, Assay Code: ARM+, Evaluation Type: Evaluation A (Pre-1980)) “active; positive”; (Species/Cell Type: Escherichia coli polA (W3119 vs P3478), Assay Type: Rec-assay, DNA effects (bacterial DNA repair), Assay Code: RE1T, Evaluation Type: Evaluation A (Pre-1980)) “no conclusion”; (Species/Cell Type: Salmonella typhimurium (one or more of the five standard strains: TA98, TA100, TA1535, TA1537, and TA1538), Assay Type: Histidine reverse gene mutation, Ames assay, Assay Code: SAL+*, Activation: With metabolic activation, Evaluation Type: Evaluation A (Pre-1980)) “active; positive”.

For `OCc1c2ccccc2c(CO)c2c1ccc1ccccc12`, the mutagenic call under setting [4] was “inactive; negative”. Besides, the call under setting [5] is “no conclusion”.

As for `Cc1cc2nc3cc(C)c(N)cc3[n+](-c3ccccc3)c2cc1N`, the mutagenic call (Species/Cell Type: Bacillus subtilis (H17 vs M45), Assay Type: Rec-assay, spot test, DNA effects (bacterial DNA repair), Assay Code: REWT, Evaluation Type: Evaluation A (Pre-1980)) is on record as “no conclusion”.

As to `O=c1nc(NO)ccn1[C@@H]1O[C@H](CO)[C@@H](O)[C@H]1O`, the mutagenic call runs as follows: (Species/Cell Type: Escherichia coli WP2, Assay Type: Tryptophan reverse gene mutation, Assay Code: WP2+D, Dose Response: With dose response, Evaluation Type: Evaluation A (Pre-1980)) “active; positive”; (Species/Cell Type: Escherichia coli WP2 UVRA, Assay Type: Tryptophan reverse gene mutation, Assay Code: WPU+D, Dose Response: With dose response, Evaluation Type: Evaluation A (Pre-1980)) “active; positive”.

As for `Cc1c2ccccc2c(C)c2c1ccc1ccc(O)cc12`, the mutagenic call under setting [4] was “inactive; negative”. Besides, under setting [5], the call is reported as “no conclusion”.

`CCN(CC)CCn1nc2c3c(c(CO)ccc31)Sc1cc(Cl)ccc1-2`: the mutagenic call reads like this: (Species/Cell Type: Drosophila melanogaster, Assay Type: Sex-linked recessive lethal gene mutation, Assay Code: SRL-, Evaluation Type: Evaluation A (Pre-1980)) “inactive; negative”; (Species/Cell Type: Fischer rat embryo (RLV/1706) cells, Assay Type: Cell transformation, viral enhanced, Assay Code: CTR-, Evaluation Type: Evaluation A (Pre-1980)) “inactive; negative”; (Species/Cell Type: Mouse lymphoma (L5178Y) cells, Assay Type: Forward gene mutation at the thymidine kinase (TK) locus, chromosome aberrations, Assay Code: L51+, Evaluation Type: Evaluation A (Pre-1980)) “active; positive”; (Species/Cell Type: Neurospora crassa, Assay Type: Forward gene mutation, Assay Code: NEF+, Evaluation Type: Evaluation A (Pre-1980)) “active; positive”; (Species/Cell Type: Saccharomyces cerevisiae, Assay Type: Reverse gene mutation, Assay Code: YER+, Evaluation Type: Evaluation A (Pre-1980)) “active; positive”; under setting [2], “active; positive”. In addition, the mutagenic call (Species/Cell Type: Salmonella typhimurium, Assay Type: Forward and reverse gene mutation, body fluid assay, Assay Code: BFU+, Evaluation Type: Evaluation A (Pre-1980)) was “active; positive”; the mutagenic call (Species/Cell Type: Salmonella typhimurium, Assay Type: Forward and reverse gene mutation, host-mediated assay, Assay Code: HMA+, Evaluation Type: Evaluation A (Pre-1980)) is “active; positive”.

`Cc1cccc(-c2ccc(N)cc2C)c1`: the mutagenic call under setting [1] was “active; positive”.

Take `C1CC[C@H]2O[C@H]2C1`: the mutagenic call reads like this: under setting [3], “active; positive”; (Species/Cell Type: Nonhuman, Assay Type: Sister-chromatid exchange (SCE) in vitro, Assay Code: SC2T, Evaluation Type: Evaluation A (Pre-1980)) “no conclusion”.
